Assay results from ChEMBL document CHEMBL4610126, “EEDi-5285: An Exceptionally Potent, Efficacious, and Orally Active Small-Molecule Inhibitor of Embryonic Ectoderm Development” (J Med Chem, 2020).

Tests used:
[1] = tested on: KARPAS-422; assay: Growth inhibition of human KARPAS422 cells incubated for 7 days by WST8 assay; settings: KARPAS-422, 168 h
[2] = tested on: KARPAS-422; assay: Antitumor activity against human KARPAS422 cells xenografted in mouse assessed as inhibition of tumor growth at 100 mg/kg, po dosed twice daily for 36 days; type: functional; settings: KARPAS-422, po, 864 h, read-out: TGI
[3] = biological target: Polycomb protein EED (Homo sapiens, UniProt O75530)
[4] = tested on: Pfeiffer; assay: Growth inhibition of human Pfeiffer cells incubated for 10 days by WST8 assay; type: functional, cell-based; settings: 240 h
[5] = tested on: Pfeiffer; assay: Growth inhibition of human Pfeiffer cells incubated for 7 days by WST8 assay; type: functional, cell-based; settings: 168 h
[6] = Plasma concentration in mouse at 25 mg/kg, po after 1 hr by LC-MS/MS analysis; type: ADME, organism-based
[7] = Plasma concentration in mouse at 25 mg/kg, po after 3 hrs by LC-MS/MS analysis; type: ADME, organism-based
[8] = Plasma concentration in mouse at 25 mg/kg, po after 6 hrs by LC-MS/MS analysis; type: ADME, organism-based
[9] = tested on: KARPAS-422; assay: Antitumor activity against human KARPAS422 cells xenografted in SCID mouse assessed as induction of tumor regression at 50 mg/kg, po dosed daily for 28 days relative to control; type: functional
[10] = tested on: KARPAS-422; assay: Antitumor activity against human KARPAS422 cells xenografted in SCID mouse assessed as induction of tumor regression at 100 mg/kg, po dosed daily for 28 days relative to control; type: functional
[11] = Toxicity in SCID mouse xenografted with human KARPAS422 cells assessed as induction of body weight loss at 50 to 100 mg/kg, po dosed daily for 28 days; type: organism-based, KARPAS-422; settings: in vivo, 672 h
[12] = AUC (0 to t) in mouse at 2 mg/kg, iv by LC-MS/MS analysis; type: ADME, organism-based; settings: in vivo
[13] = Terminal half life in mouse at 10 mg/kg, po by LC-MS/MS analysis; type: ADME, organism-based; settings: in vivo, read-out: beta t1/2 (converted)
[14] = Cmax in mouse at 10 mg/kg, po by LC-MS/MS analysis; type: ADME, organism-based; design: dose 10 mg/kg, route oral; settings: in vivo
[15] = AUC (0 to t) in mouse at 10 mg/kg, po by LC-MS/MS analysis; type: ADME, organism-based; settings: in vivo
[16] = Plasma clearance in mouse at 2 mg/kg, iv by LC-MS/MS analysis; type: ADME, organism-based
[17] = Volume of distribution at steady state in mouse at 2 mg/kg, iv by LC-MS/MS analysis; type: ADME, organism-based; settings: in vivo, read-out: Vdss

Sequence of Polycomb protein EED (O75530 whole entry): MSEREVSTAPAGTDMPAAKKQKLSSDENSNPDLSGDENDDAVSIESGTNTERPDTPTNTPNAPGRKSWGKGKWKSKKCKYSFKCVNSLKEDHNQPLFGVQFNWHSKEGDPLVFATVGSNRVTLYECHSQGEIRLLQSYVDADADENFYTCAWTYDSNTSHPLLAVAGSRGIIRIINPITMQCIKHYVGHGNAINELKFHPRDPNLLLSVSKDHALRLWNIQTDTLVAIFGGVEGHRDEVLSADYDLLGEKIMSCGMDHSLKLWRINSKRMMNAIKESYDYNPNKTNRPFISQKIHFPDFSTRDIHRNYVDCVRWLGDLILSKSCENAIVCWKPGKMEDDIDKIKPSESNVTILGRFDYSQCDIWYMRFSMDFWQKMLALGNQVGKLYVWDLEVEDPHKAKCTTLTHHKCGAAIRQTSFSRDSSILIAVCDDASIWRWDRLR

Structure (SMILES)	IC50 [1]	IC50 [3]	IC50 [5]	concentration at 1 h [6]	concentration at 3 h [7]	concentration at 6 h [8]	also measured
CS(=O)(=O)c1ccc(-c2cnc(NCc3ccco3)n3cnnc23)cc1	180 nM	17.6 nM	–	–	–	–	inhibition in vivo at 100 mg/kg [2]: 85%
CN(C)[C@H]1CN(C2CCc3cccc(F)c32)C[C@@H]1c1ccc(N2CCN(S(C)(=O)=O)CC2)cc1 (some centres undefined)	–	–	–	–	–	–	IC50 [4]: 69 nM
Cc1ncccc1-c1cnc(NCc2c(F)ccc3c2CCO3)n2cnc(S(C)(=O)=O)c12	3.6 nM	–	0.08 nM	488 ng/mL	194 ng/mL	91 ng/mL	–
CS(=O)(=O)c1ncn2c(NCc3c(F)ccc4c3CCO4)ncc(C3CCN(S(=O)(=O)C4CC4)CC3)c12	8.2 nM	3.1 nM	–	–	–	–	–
CCOC(=O)c1ncn2c(NCc3ccccc3)ncc(-c3ccccc3)c12	3000 nM	–	–	–	–	–	–
CCN1CCC(c2cnc(NCc3c(F)ccc4c3CCO4)n3cnc(S(C)(=O)=O)c23)CC1	126 nM	23 nM	–	–	–	–	–
Cc1ccc(-c2cnc(NCc3c(F)ccc4c3CCO4)n3cnc(S(C)(=O)=O)c23)c(C)n1	–	0.5 nM	–	2480 ng/mL	754 ng/mL	485 ng/mL	Activity [9]: 100%; Activity [10]: 100%; Activity [11]: Non-Toxic; AUC(0-t) [12]: 800 ng·h/mL; half-life [13]: 2.1 h; Cmax [14]: 1300 ng/mL; AUC(0-t) [15]: 2600 ng·h/mL; clearance [16]: 40 mL/min/kg; Vd [17]: 1.6 L/kg
CCOC(=O)c1ncn2c(NCc3cc(OC)ccc3F)ncc(-c3ccccc3)c12	2700 nM	–	–	–	–	–	–
CS(=O)(=O)c1ncn2c(NCc3c(F)ccc4c3CCO4)ncc(-c3ccc(C(F)F)nc3)c12	2.4 nM	0.2 nM	0.02 nM	242 ng/mL	18 ng/mL	< 10 ng/mL	–
CCOC(=O)c1ncn2c(NCc3cccc4c3OCO4)ncc(-c3ccccc3)c12	300 nM	40 nM	–	–	–	–	–
CNC(=O)c1ncn2c(NCc3c(F)ccc4c3CCO4)ncc(-c3ccccc3)c12	60 nM	–	–	–	–	–	–
CS(=O)(=O)c1ncn2c(NCc3c(F)ccc4c3CCO4)ncc(-c3ccc(C4CC4)nc3)c12	0.5 nM	0.2 nM	0.02 nM	1100 ng/mL	608 ng/mL	452 ng/mL	Activity [9]: 100%; Activity [10]: 100%; Activity [11]: Non-Toxic; AUC(0-t) [12]: 1700 ng·h/mL; Cmax [14]: 1800 ng/mL; AUC(0-t) [15]: 6000 ng·h/mL; clearance [16]: 20 mL/min/kg; Vd [17]: 1.4 L/kg
CCOC(=O)c1ncn2c(NCc3cccc4c3CCO4)ncc(-c3ccccc3)c12	210 nM	–	–	–	–	–	–
CCOC(=O)c1ncn2c(NCc3cccc4c3OCC4)ncc(-c3ccccc3)c12	6300 nM	–	–	–	–	–	–
Fc1ccc2c(c1CNc1ncc(-c3ccccc3)c3c(C(F)(F)F)ncn13)CCO2	120 nM	–	–	–	–	–	–
CS(=O)(=O)c1ncn2c(NCc3c(F)ccc4c3CCO4)ncc(-c3ccc(C(F)(F)F)nc3)c12	1.7 nM	0.3 nM	0.03 nM	468 ng/mL	189 ng/mL	139 ng/mL	–
CC(=O)N1CCC(c2cnc(NCc3c(F)ccc4c3CCO4)n3cnc(S(C)(=O)=O)c23)CC1	6.5 nM	2.8 nM	–	–	–	–	–

Structure (SMILES)	IC50 [1]	IC50 [3]	IC50 [5]	concentration at 1 h [6]	concentration at 3 h [7]	concentration at 6 h [8]	also measured
CS(=O)(=O)c1ccc(-c2cnc(NCc3c(F)ccc4c3CCO4)n3cnc(S(C)(=O)=O)c23)cn1	2.9 nM	–	0.5 nM	351 ng/mL	36 ng/mL	41 ng/mL	–
CS(=O)(=O)c1ncn2c(NCc3c(F)ccc4c3CCO4)ncc(-c3ccccc3)c12	2.2 nM	–	–	–	–	–	–
Cn1cc(-c2cnc(NCc3c(F)ccc4c3CCO4)n3cnc(S(C)(=O)=O)c23)cn1	3.1 nM	0.5 nM	0.27 nM	468 ng/mL	50 ng/mL	56 ng/mL	–
CS(=O)(=O)c1ncn2c(NCc3c(F)ccc4c3CCO4)ncc(C3CCS(=O)(=O)CC3)c12	29 nM	7.8 nM	–	–	–	–	–
CS(=O)(=O)c1ncn2c(NCc3c(F)ccc4c3CCO4)ncc(-c3ccc(F)cc3)c12	5.2 nM	0.4 nM	0.12 nM	43 ng/mL	< 10 ng/mL	< 10 ng/mL	–
CCOC(=O)c1ncn2c(NCc3c(F)cccc3OC)ncc(-c3ccccc3)c12	300 nM	50 nM	–	–	–	–	–
Cc1nc(C(F)(F)F)ccc1-c1cnc(NCc2c(F)ccc3c2CCO3)n2cnc(S(C)(=O)=O)c12	1.7 nM	0.4 nM	0.05 nM	896 ng/mL	794 ng/mL	415 ng/mL	–
Cc1ccc(-c2cnc(NCc3c(F)ccc4c3CCO4)n3cnc(S(C)(=O)=O)c23)cn1	1.4 nM	–	0.03 nM	340 ng/mL	94 ng/mL	29 ng/mL	–
CS(=O)(=O)c1ccc(-c2cnc(NCc3c(F)ccc4c3CCO4)n3cnc(S(C)(=O)=O)c23)cc1	1.4 nM	–	0.02 nM	598 ng/mL	171 ng/mL	109 ng/mL	–
CCOC(=O)c1ncn2c(NCc3ccc(OC)cc3F)ncc(-c3ccccc3)c12	4300 nM	–	–	–	–	–	–
CCOC(=O)c1ncn2c(NCc3ccco3)ncc(-c3ccccc3)c12	1000 nM	–	–	–	–	–	–
CS(=O)(=O)c1ncn2c(NCc3c(F)ccc4c3CCO4)ncc(C3CCOCC3)c12	52 nM	12 nM	–	–	–	–	–
CNC(=O)c1ncn2c(NCc3ccco3)ncc(-c3ccccc3)c12	2400 nM	–	–	–	–	–	–
CP(C)(=O)c1ncn2c(NCc3c(F)ccc4c3CCO4)ncc(-c3ccccc3)c12	8.1 nM	–	–	–	–	–	–
Cc1cc(S(C)(=O)=O)ccc1-c1cnc(NCc2c(F)ccc3c2CCO3)n2cnc(S(C)(=O)=O)c12	1.6 nM	0.9 nM	0.02 nM	591 ng/mL	279 ng/mL	98 ng/mL	–
CS(=O)(=O)c1ncn2c(NCc3c(F)ccc4c3CCO4)ncc(C3CCN(S(C)(=O)=O)CC3)c12	15.3 nM	7.9 nM	–	–	–	–	–
